According to ChEMBL document CHEMBL5550200, “Back-Pocket Optimization of 2-Aminopyrimidine-Based Macrocycles Leads to Potent EPHA2/GAK Kinase Inhibitors” (J Med Chem, 2024):

What was measured:
[1] = target: Ephrin type-A receptor 4 (Homo sapiens, UniProt P54764); test: Induction of stabilization of recombinant EPHA4 (unknown origin) assessed as change in melting temperature by differential scanning fluorimetry assay
[2] = target: T1, Ephrin type-B receptor 1 (Homo sapiens) (UniProt P54762); test: Induction of stabilization of recombinant EPHB1 (unknown origin) assessed as change in melting temperature by differential scanning fluorimetry assay
T1 sequence (whole entry): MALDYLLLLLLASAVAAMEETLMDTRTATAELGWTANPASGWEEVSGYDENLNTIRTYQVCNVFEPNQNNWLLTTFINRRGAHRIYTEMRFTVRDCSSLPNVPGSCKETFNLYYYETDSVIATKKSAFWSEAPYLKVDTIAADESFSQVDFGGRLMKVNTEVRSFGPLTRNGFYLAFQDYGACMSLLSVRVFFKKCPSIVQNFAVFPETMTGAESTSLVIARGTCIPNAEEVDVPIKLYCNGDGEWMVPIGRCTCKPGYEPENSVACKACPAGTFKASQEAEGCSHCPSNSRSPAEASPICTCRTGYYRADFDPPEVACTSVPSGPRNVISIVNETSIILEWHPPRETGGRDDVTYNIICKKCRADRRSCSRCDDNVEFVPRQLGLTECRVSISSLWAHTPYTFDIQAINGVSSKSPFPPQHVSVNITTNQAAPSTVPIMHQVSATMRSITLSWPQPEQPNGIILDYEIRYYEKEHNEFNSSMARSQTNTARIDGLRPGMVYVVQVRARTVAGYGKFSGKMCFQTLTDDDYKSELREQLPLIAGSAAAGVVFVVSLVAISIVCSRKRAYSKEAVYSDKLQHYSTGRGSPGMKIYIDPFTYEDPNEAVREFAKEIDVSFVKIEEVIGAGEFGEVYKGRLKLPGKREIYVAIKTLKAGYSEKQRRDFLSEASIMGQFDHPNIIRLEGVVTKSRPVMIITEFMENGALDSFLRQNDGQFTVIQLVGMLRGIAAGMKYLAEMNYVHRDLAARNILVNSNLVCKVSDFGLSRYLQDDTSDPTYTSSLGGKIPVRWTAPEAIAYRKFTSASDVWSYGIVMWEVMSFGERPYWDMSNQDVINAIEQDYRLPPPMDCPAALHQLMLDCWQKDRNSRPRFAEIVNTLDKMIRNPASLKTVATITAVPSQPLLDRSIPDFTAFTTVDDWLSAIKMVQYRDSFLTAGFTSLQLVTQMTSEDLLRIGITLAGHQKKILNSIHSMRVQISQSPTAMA

[3] = target: Fibroblast growth factor receptor 2 (Homo sapiens) (UniProt P21802)
Chain of Fibroblast growth factor receptor 2 (Homo sapiens) (P21802 22-821 limits assumed): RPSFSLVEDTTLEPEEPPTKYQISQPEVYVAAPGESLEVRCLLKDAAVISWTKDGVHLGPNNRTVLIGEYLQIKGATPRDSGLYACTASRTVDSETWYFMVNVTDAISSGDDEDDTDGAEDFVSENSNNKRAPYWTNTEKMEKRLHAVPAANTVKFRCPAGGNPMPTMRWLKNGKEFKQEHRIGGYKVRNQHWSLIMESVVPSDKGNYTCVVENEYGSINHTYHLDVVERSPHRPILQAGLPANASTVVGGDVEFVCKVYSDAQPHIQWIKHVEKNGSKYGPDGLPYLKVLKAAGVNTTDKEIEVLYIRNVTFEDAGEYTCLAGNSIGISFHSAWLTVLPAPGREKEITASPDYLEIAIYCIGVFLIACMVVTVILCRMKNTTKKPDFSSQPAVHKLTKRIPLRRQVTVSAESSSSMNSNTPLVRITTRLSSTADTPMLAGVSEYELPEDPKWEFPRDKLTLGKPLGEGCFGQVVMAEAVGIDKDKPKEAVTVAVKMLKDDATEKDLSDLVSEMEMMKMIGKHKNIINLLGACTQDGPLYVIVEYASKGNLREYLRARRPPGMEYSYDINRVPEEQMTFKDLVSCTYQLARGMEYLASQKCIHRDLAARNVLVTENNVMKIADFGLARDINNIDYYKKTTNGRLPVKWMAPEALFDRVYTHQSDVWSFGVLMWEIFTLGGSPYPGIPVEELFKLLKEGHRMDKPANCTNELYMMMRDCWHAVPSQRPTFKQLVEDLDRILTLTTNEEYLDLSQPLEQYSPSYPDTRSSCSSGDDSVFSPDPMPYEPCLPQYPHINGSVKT
Description: Induction of stabilization of recombinant FGFR2 (unknown origin) assessed as change in melting temperature by differential scanning fluorimetry assay

Chain of Ephrin type-A receptor 4 (P54764 whole entry): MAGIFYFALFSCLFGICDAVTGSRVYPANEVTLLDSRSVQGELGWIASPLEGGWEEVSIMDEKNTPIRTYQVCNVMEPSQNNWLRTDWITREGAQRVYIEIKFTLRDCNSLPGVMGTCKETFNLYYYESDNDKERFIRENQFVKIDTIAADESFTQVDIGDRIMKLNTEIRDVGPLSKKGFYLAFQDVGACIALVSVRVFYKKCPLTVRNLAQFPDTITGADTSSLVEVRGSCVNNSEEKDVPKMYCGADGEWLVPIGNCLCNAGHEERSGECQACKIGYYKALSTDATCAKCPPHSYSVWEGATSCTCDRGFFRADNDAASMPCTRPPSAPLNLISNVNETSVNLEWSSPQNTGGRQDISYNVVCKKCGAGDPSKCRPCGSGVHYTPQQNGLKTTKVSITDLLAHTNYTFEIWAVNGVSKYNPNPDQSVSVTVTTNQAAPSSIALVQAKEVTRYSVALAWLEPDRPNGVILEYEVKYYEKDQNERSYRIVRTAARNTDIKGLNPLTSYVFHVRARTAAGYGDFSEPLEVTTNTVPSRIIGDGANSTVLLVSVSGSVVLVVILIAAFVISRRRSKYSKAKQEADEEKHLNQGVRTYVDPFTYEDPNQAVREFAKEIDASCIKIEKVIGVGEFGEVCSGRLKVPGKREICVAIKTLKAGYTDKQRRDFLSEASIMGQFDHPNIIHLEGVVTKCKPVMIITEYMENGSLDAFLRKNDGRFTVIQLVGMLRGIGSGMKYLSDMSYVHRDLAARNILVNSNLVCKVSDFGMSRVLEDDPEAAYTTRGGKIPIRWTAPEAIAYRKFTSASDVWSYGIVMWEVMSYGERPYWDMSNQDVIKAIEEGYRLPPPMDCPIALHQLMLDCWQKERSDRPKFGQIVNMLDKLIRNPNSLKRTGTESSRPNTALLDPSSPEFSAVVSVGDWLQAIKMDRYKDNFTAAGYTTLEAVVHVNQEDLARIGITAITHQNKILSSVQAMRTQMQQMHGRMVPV

deltaTm [1] [K]	deltaTm [2] [K]	deltaTm [3] [K]	SMILES
4.9	5.6	5.8	COc1c(F)ccc(-c2cnc3nc2NCCCNS(=O)(=O)c2cccc(c2)N3)c1F
3.3	3.5	3	COc1cc(-c2cnc3nc2NCCCNS(=O)(=O)c2cc(ccc2O)N3)ccc1F
2.8	3.3	3.6	COc1cc(-c2cnc3nc2NCCCNS(=O)(=O)c2cccc(c2)N3)c(F)cc1F
2.9	2.2	3.9	O=S1(=O)NCCCNc2nc(ncc2-c2ccc(Cl)c(Cl)c2)Nc2cccc1c2
